These are literature values, as cited in publication PMC2923042 (Journal of chemical information and modeling, 2008).

One may read the pIC50 as the negative decadic logarithm of the IC50, by convention in mol/L.

The structures appear in SMILES notation. pIC50: −log10 of the molar value.

This data set deals with catL. Particulars: extrapolated from 63% inhibition at 10^-7 M; ref Tsuge et al.[15].

With `CN(C)C(=O)[C@H](Cc1ccccc1)NC(=O)[C@H]1O[C@@H]1C(=O)NCCc1ccccn1` [CLIK-148], the pIC50 was over 7.00.
